In US3975384A, “2,4,5,6-Tetrasubstituted pyrimidines and salts thereof” (Boehringer Ingelheim GmbH, priority 1973, dated 1976):
Where two headings read alike, the source gives them in different places.

Experiments:
[1] = Acute toxicity (LD50) in mice; settings: mouse, in vivo, observation time 14 days
Procedure: The acute toxicity of the test compounds was determined in mice (observation time: 14 days). The LD50 was calculated from the percentage of animals which died within the observation time after administration, i.v. or p.o., of varying doses [see J. Pharmacol. exper. Therap. 96, 99 (1949)].

[2] = system: platelet aggregation in human blood plasma; experiment: Born and Cross test, ADP-induced platelet aggregation; assay type: cell-based; settings: 10 min, human platelet-rich plasma, 10 minutes at 37°C, read-out: Born and Cross test (ADP) EC50 (concentration which causes a 50% alteration of the "optical density")
Procedure: 1. Determination of inhibiting effect upon platelet aggregation in human blood plasma by the method of Born and cross, J. Physiol. 170, 397 (1964):
The platelet aggregation was measured in the platelet-rich plasma of normal, healthy human donors. The rate of decline of the optical density of the platelet suspension was measured and recorded photometrically after the addition of adenosine diphosphate (ADP). From the angle of inclination of the density curve, the speed of aggregation was concluded. The optical density was taken as the point on the curve where most light was transmitted. The smallest possible doses of ADP were chosen, but enough to result in irreversible aggregation. The plasma was incubated at 37°C for 10 minutes with varying quantities of the test compound before ADP was added.

[3] = system: platelet adhesiveness in human blood; experiment: Morris retention test, inhibition of platelet adhesiveness; assay type: cell-based; settings: 10 min; for inhibition at 10 µM: 10 μ mols/liter, 10 minutes at 37°C, glass beads
Procedure: 2. Determination of inhibiting effect on platelet adhesiveness in human blood by the so-called retention test according to Morris (E. Deutsch, E. Gerlach and K. Moser: 1. Internationales Symposium uber Stoffwechsel und Membranpermeabilitat von Erythrozyten and Thrombozyten, Vienna, 1969; Georg Thieme Verlag, Stuttgart, Germany).
To determine the inhibiting action of the test compound on thrombocyte aggregation, 1 ml of human blood was pipetted into each of a plurality of small test tubes, and the test compound was added to give a final concentration of 5 × 10^-^5 mol/liter or 1 × 10^^-5 mol/liter. The tubes were incubated for 10 minutes at 37°C. 1 gm of glass beads (for gas-chromatography) was added to half of the tubes. Then, the stoppered tubes were attached to a disc mounted for rotation about a horizontal axis and rotated for 1 minute. By this means good contact was obtained between the glass beads and the blood. The tubes were then left standing at room temperature for another hour, after which time a satisfactory sedimentation of erythrocytes had taken place. 0.01 ml of the supernatant plasma was removed, diluted 1:8000 with celloscope solution, and the platelet count was read in a celloscope. The percentage reduction of the stickiness due to the presence of the test compound, compared to the tubes containing no glass beads, was measured (average values of 4- 6 tests).

[4] = Hygroscopicity remark on acid addition salt; assay type: physicochemical; settings: printed beside m.p. of the salt

Cc1nc(N2CCNCC2)nc(N2CC[S+]([O-])CC2)c1[N+](=O)[O-] [A, 6-methyl-5-nitro-2-piperazino-4-(1-oxido-thiomorpholino)-pyrimidine]
LD50 at 336 h ([1]; iv, read-out: LD50 i.v.): 160 mg/kg | LD50 at 336 h ([1]; po, read-out: LD50 p.o.): 600 mg/kg | IC50 [2]: 12 nM | inhibition at 10 µM [3]: 92%

Cc1nc(N2CCNCC2)nc(N2CCSCC2)c1[N+](=O)[O-] [B, 6-methyl-5-nitro-2-piperazino-4-thiomorpholino-pyrimidine]
LD50 at 336 h ([1]; iv, read-out: LD50 i.v.): 70 mg/kg | LD50 at 336 h ([1]; po, read-out: LD50 p.o.): 620 mg/kg | IC50 [2]: 3000 nM | inhibition at 10 µM [3]: 66%

N#Cc1nc(N2CCNCC2)nc(N2CC[S+]([O-])CC2)c1Cl [C, 5-chloro-6-cyano-2-piperazino-4-(1-oxido-thiomorpholino)-pyrimidine]
LD50 at 336 h ([1]; iv, read-out: LD50 i.v.): 101 mg/kg | LD50 at 336 h ([1]; po, read-out: LD50 p.o.): 836 mg/kg | IC50 [2]: 130 nM | inhibition at 10 µM [3]: 92%

CCOc1nc(N2CCNCC2)nc(N2CC[S+]([O-])CC2)c1[N+](=O)[O-] [D, 6-ethoxy-5-nitro-4-(1-oxido-thiomorpholino)-2-piperazino-pyrimidine]
LD50 at 336 h ([1]; iv, read-out: LD50 i.v.): 150 mg/kg | LD50 at 336 h ([1]; po, read-out: LD50 p.o.): 600 mg/kg | IC50 [2]: 25 nM | inhibition at 10 µM [3]: 100%

CC(C)Oc1nc(N2CCNCC2)nc(N2CC[S+]([O-])CC2)c1[N+](=O)[O-] [E, 5-nitro-4-(1-oxido-thiomorpholino)-2-piperazino-6-isopropoxy-pyrimidine]
LD50 at 336 h ([1]; iv, read-out: LD50 i.v.): 170 mg/kg | LD50 at 336 h ([1]; po, read-out: LD50 p.o.): 500 mg/kg | IC50 [2]: 200 nM | inhibition at 10 µM [3]: 69%

CCC(C)Oc1nc(N2CCNCC2)nc(N2CCS(=O)(=O)CC2)c1[N+](=O)[O-] (stereo not shown) [F, 6-sec.Butoxy-4-(1,1-dioxido-thiomorpholino)-5-nitro-2-piperazino-pyrimidine]
LD50 at 336 h ([1]; iv, read-out: LD50 i.v.): 150 mg/kg | LD50 at 336 h ([1]; po, read-out: LD50 p.o.): 1500 mg/kg | IC50 [2]: 850 nM | inhibition at 10 µM [3]: 61%

CCOc1nc(N2CCNCC2)nc(N2CC[S+]([O-])CC2)c1[N+](=O)[O-] [Fumarate, 6-Ethoxy-5-nitro-4-(1-oxido-thiomorpholino)-2-piperazino-pyrimidine]
hygroscopicity [4]: hydroscopic

CSc1nc(N2CCN(C=O)CC2)nc(N2CC[S+]([O-])CC2)c1[N+](=O)[O-] [G, 6-methylthio-5-nitro-4-(1-oxido-thiomorpholino)-2-(N'-formyl-piperazino)-pyrimidine]
LD50 at 336 h ([1]; po, read-out: LD50 p.o.): > 1000 mg/kg | IC50 [2]: 50000 nM | inhibition at 10 µM [3]: 2%

CC(=O)CC(=O)N1CCN(c2nc(C)c([N+](=O)[O-])c(N3CC[S+]([O-])CC3)n2)CC1 [H, 6-methyl-5-nitro-4-(1-oxido-thiomorpholino)-2-(N'-acetoacetyl-piperazino)-pyrimidine]
LD50 at 336 h ([1]; po, read-out: LD50 p.o.): > 1000 mg/kg | IC50 [2]: 100000 nM | inhibition at 30 µM ([3]; Concentration: 30μ mols/liter (footnote +)): 11%
